Measured values published in the C3SDB collision cross section collection.

Details: [M+H]+; instrument: TW; Major Mix IMS/Tof Calibration Kit (Waters)

Structure (SMILES) | collision cross section (N2)
CCN(CC)CCc1c[nH]c2ccccc12 ["NN-Diethyltryptamine"] | 148.6 Å²
CN(C)CCc1c[nH]c2ccccc12 ["NN-Dimethyltryptamine"] | 143.5 Å²
COc1cc2nc(N(C)CCCNC(=O)C3CCCO3)nc(N)c2cc1OC (configuration not stated) [Alfuzosin] | 194.6 Å²
OCc1nnc2n1-c1ccc(Cl)cc1C(c1ccccc1)=NC2 [Alprazolam-M alpha-Hydroxy] | 173.3 Å²
CN(C)CC/C=C1\c2ccccc2CC(O)c2ccccc21 (configuration not stated) [Amitriptylin-M (E)-10-hydroxy] | 167.6 Å²
NCC(CC(=O)O)c1ccc(Cl)cc1 (configuration not stated) [Baclofen] | 149.2 Å²
C[C@@H](Cc1ccccc1)N(C)Cc1ccccc1 [Benzphetamine] | 154.8 Å²
CCC(NC)C(=O)c1ccc2c(c1)OCO2 (configuration not stated) [Butylone] | 151 Å²
CCC(Br)(CC)C(=O)NC(N)=O [Carbromal] | 139.8 Å²
CCN(CC)CCCC(C)Nc1ccnc2cc(Cl)ccc12 (configuration not stated) [Chloroquine] | 176.8 Å²
CNCCC[C@@]1(c2ccc(F)cc2)OCc2cc(C#N)ccc21 [Citalopram-M N-desmethyl] | 178.7 Å²
Clc1ccc2c(c1)CCc1cccnc1C2=C1CCNCC1 [Desloratadine] | 175.5 Å²
Cc1cccc(Cc2cnc[nH]2)c1C [Detomidine] | 146.8 Å²
COc1ccc2c3c1O[C@H]1[C@@H](O)CC[C@H]4[C@@H](C2)N(C)CC[C@@]341 [Dihydrocodeine] | 168.6 Å²
COc1ccc([C@@H]2Sc3ccccc3N(CCN(C)C)C(=O)[C@@H]2OC(C)=O)cc1 [Diltiazem] | 197.8 Å²
CC(CCc1ccc(O)cc1)NCCc1ccc(O)c(O)c1 (configuration not stated) [Dobutamine] | 168.2 Å²
CN(C)CCC=C1c2ccccc2COc2ccccc21 [Doxepin] | 164.3 Å²

Next, values leading:

collision cross section (N2) | Structure (SMILES)
193.9 Å² | Cc1ccc(/C(=C\CN2CCCC2)c2cccc(/C=C/C(=O)O)n2)cc1 [Acrivastine]
159.5 Å² | C=CCc1ccccc1OCC(O)CNC(C)C (configuration not stated) [Alprenolol]
226.4 Å² | CCCCc1oc2ccccc2c1C(=O)c1cc(I)c(OCCN(CC)CC)c(I)c1 [Amiodarone]
167.2 Å² | CN(C)CCC=C1c2ccccc2CCc2ccccc21 [Amitriptyline]
188 Å² | CCOC(=O)C1=C(COCCN)NC(C)=C(C(=O)OC)C1c1ccccc1Cl (configuration not stated) [Amlodipine]
170.2 Å² | Clc1ccc2c(c1)C(N1CCNCC1)=Nc1ccccc1O2 [Amoxapine]
180.8 Å² | CN1[C@@H]2CC[C@H]1C[C@@H](OC(c1ccccc1)c1ccccc1)C2 [Benztropine]
192.2 Å² | CC(C)NCC(O)COc1ccc(COCCOC(C)C)cc1 (configuration not stated) [Bisoprolol]
168.4 Å² | Clc1ccc(C(c2ccccc2)N2CCNCC2)cc1 (configuration not stated) [Cetirizine-M N-desalkyl]
170.1 Å² | CN(C)CC/C=C1/c2ccccc2Sc2ccc(Cl)cc21 [Chlorprothixene]
206.2 Å² | C(=C\c1ccccc1)/CN1CCN(C(c2ccccc2)c2ccccc2)CC1 [Cinnarizine]
144 Å² | Clc1cccc(Cl)c1NC1=NCCN1 [Clonidine]
173.8 Å² | Clc1ccc2c(c1)N=C(N1CCNCC1)c1ccccc1N2 [Clozapine-M nor]
166.7 Å² | CN(C)CC(c1ccc(O)cc1)C1(O)CCCCC1 (configuration not stated) [Desvenlafaxine]
183.4 Å² | CCN1CC(CCN2CCOCC2)C(c2ccccc2)(c2ccccc2)C1=O (configuration not stated) [Doxapram]
